Several values for one entry are separate records, joined by “and”; a condition that tells them apart may be missing. Equal entries are not always repeated. Toxic doses and inconclusive results are not listed.
Tested on: P388 leukemia ip, CD2F1 mice, survival T/C
Test: NCI In Vivo Anticancer Drug Screen. Data for tumor model P388 Leukemia (intraperitoneal) in CD2F1 (CDF1) mice
Settings: endpoint: median survival time, higher = longer survival
Summary of the method: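 Mice carrying the transplanted tumor received test compound or vehicle. Survival was recorded in each group, and the value is the treated-group measurement divided by that of the vehicle-treated control group.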

Compound: COc1cc(NS(C)(=O)=O)ccc1Nc1c2ccccc2nc2ccccc12
- T/C (dose: 0.25 mg/kg/injection, schedule: Q01DX009 (ip), vehicle: other): 119 % of control
- T/C (dose: 0.52 mg/kg/injection, schedule: Q01DX009 (ip), vehicle: other): 151 % of control
- T/C (dose: 0.86 mg/kg/injection, schedule: Q01DX009 (ip), vehicle: other): 163 % of control
- T/C (dose: 1.0 mg/kg/injection, schedule: Q01DX005 (iv), vehicle: other): 120 % of control
- T/C (dose: 1.0 mg/kg/injection, schedule: Q01DX009 (ip), vehicle: other): 157 % of control
- T/C (dose: 1.0 mg/kg/injection, schedule: Q04DX003 (ip), vehicle: other): 118 % of control
- T/C (dose: 1.44 mg/kg/injection, schedule: Q01DX009 (ip), vehicle: other): 173 % of control
- T/C (dose: 1.5 mg/kg/injection, schedule: Q04DX003 (ip), vehicle: clinical formulation): 152 % of control
- T/C (dose: 2.0 mg/kg/injection, schedule: Q01DX005 (ip), vehicle: other): 153 % of control and 163 % of control
- T/C (dose: 2.0 mg/kg/injection, schedule: Q01DX005 (oral), vehicle: other): 111 % of control
- T/C (dose: 2.0 mg/kg/injection, schedule: Q01DX009 (ip), vehicle: other): 175 % of control and 195 % of control
- T/C (dose: 2.0 mg/kg/injection, schedule: Q04DX003 (oral), vehicle: other): 111 % of control
- T/C (dose: 2.4 mg/kg/injection, schedule: Q01DX009 (ip), vehicle: other): 209 % of control
- T/C (dose: 2.5 mg/kg/injection, schedule: Q04DX002 (ip), vehicle: clinical formulation): 153 % of control and 173 % of control
- T/C (dose: 2.5 mg/kg/injection, schedule: Q04DX003 (ip), vehicle: other): 155 % of control
- T/C (dose: 2.59 mg/kg/injection, schedule: Q04DX003 (ip), vehicle: clinical formulation): 167 % of control
- T/C (dose: 2.59 mg/kg/injection, schedule: Q04DX003 (ip), vehicle: saline): 168 % of control
- T/C (dose: 2.59 mg/kg/injection, schedule: Q04DX003 (ip), vehicle: water): 161 % of control and 163 % of control and 179 % of control
- T/C (dose: 2.6 mg/kg/injection, schedule: Q04DX002 (ip), vehicle: other): 160 % of control
- T/C (dose: 3.0 mg/kg/injection, schedule: Q04DX003 (ip), vehicle: clinical formulation): 160 % of control
- T/C (dose: 4.0 mg/kg/injection, schedule: Q01DX005 (ip), vehicle: other): 183 % of control and 207 % of control
- T/C (dose: 4.0 mg/kg/injection, schedule: Q01DX005 (iv), vehicle: other): 154 % of control
- T/C (dose: 4.0 mg/kg/injection, schedule: Q01DX005 (oral), vehicle: other): 120 % of control
- T/C (dose: 4.0 mg/kg/injection, schedule: Q01DX009 (ip), vehicle: other): 192 % of control and 223 % of control and 90 % of control
- T/C (dose: 4.0 mg/kg/injection, schedule: Q04DX003 (ip), vehicle: other): 163 % of control
- T/C (dose: 4.0 mg/kg/injection, schedule: Q04DX003 (oral), vehicle: other): 119 % of control
- T/C (dose: 4.3 mg/kg/injection, schedule: Q04DX002 (ip), vehicle: other): 179 % of control
- T/C (dose: 4.32 mg/kg/injection, schedule: Q04DX003 (ip), vehicle: clinical formulation): 173 % of control
- T/C (dose: 4.32 mg/kg/injection, schedule: Q04DX003 (ip), vehicle: saline): 175 % of control
- T/C (dose: 4.32 mg/kg/injection, schedule: Q04DX003 (ip), vehicle: water): 169 % of control and 176 % of control and 180 % of control
- T/C (dose: 5.0 mg/kg/injection, schedule: Q04DX002 (ip), vehicle: clinical formulation): 172 % of control and 186 % of control
- T/C (dose: 5.0 mg/kg/injection, schedule: Q04DX003 (ip), vehicle: other): 156 % of control and 161 % of control and 193 % of control
- T/C (dose: 6.0 mg/kg/injection, schedule: Q04DX003 (ip), vehicle: clinical formulation): 203 % of control
- T/C (dose: 6.0 mg/kg/injection, schedule: Q04DX003 (ip), vehicle: saline with Tween-80): 175 % of control
- T/C (dose: 6.25 mg/kg/injection, schedule: Q04DX002 (oral), vehicle: other): 101 % of control and 106 % of control
- T/C (dose: 7.2 mg/kg/injection, schedule: Q04DX003 (ip), vehicle: clinical formulation): 216 % of control
- T/C (dose: 7.2 mg/kg/injection, schedule: Q04DX003 (ip), vehicle: saline): 214 % of control
- T/C (dose: 7.2 mg/kg/injection, schedule: Q04DX003 (ip), vehicle: water): 197 % of control and 204 % of control and 219 % of control
- T/C (dose: 8.0 mg/kg/injection, schedule: Q01DX005 (ip), vehicle: other): 193 % of control
- T/C (dose: 8.0 mg/kg/injection, schedule: Q04DX003 (ip), vehicle: other): 158 % of control and 204 % of control
- T/C (dose: 8.0 mg/kg/injection, schedule: Q04DX003 (ip), vehicle: saline with Tween-80): 182 % of control and 235 % of control
- T/C (dose: 8.0 mg/kg/injection, schedule: Q04DX003 (oral), vehicle: other): 123 % of control
- T/C (dose: 10.0 mg/kg/injection, schedule: Q04DX002 (ip), vehicle: clinical formulation): 216 % of control and 238 % of control
- T/C (dose: 10.0 mg/kg/injection, schedule: Q04DX003 (ip), vehicle: other): 182 % of control and 204 % of control and 245 % of control
- T/C (dose: 10.8 mg/kg/injection, schedule: Q01DX001 (ip), vehicle: other): 153 % of control
- T/C (dose: 12.0 mg/kg/injection, schedule: Q04DX003 (ip), vehicle: clinical formulation): 207 % of control and 228 % of control
- T/C (dose: 12.0 mg/kg/injection, schedule: Q04DX003 (ip), vehicle: saline): 261 % of control
- T/C (dose: 12.0 mg/kg/injection, schedule: Q04DX003 (ip), vehicle: water): 230 % of control and 231 % of control
- T/C (dose: 12.5 mg/kg/injection, schedule: Q04DX002 (oral), vehicle: other): 107 % of control and 117 % of control
- T/C (dose: 16.0 mg/kg/injection, schedule: Q04DX003 (ip), vehicle: other): 193 % of control and 245 % of control
- T/C (dose: 18.0 mg/kg/injection, schedule: Q01DX001 (ip), vehicle: other): 165 % of control
- T/C (dose: 18.0 mg/kg/injection, schedule: Q04DX003 (ip), vehicle: saline with Tween-80): 191 % of control and 264 % of control
- T/C (dose: 20.0 mg/kg/injection, schedule: Q01DX001 (ip), vehicle: saline with Tween-80): 117 % of control
- T/C (dose: 20.0 mg/kg/injection, schedule: Q04DX002 (ip), vehicle: clinical formulation): 281 % of control
- T/C (dose: 22.5 mg/kg/injection, schedule: Q04DX003 (ip), vehicle: saline with Tween-80): 198 % of control
- T/C (dose: 25.0 mg/kg/injection, schedule: Q04DX002 (oral), vehicle: other): 120 % of control
- T/C (dose: 25.0 mg/kg/injection, schedule: Q04DX003 (ip), vehicle: saline with Tween-80): 161 % of control
- T/C (dose: 30.0 mg/kg/injection, schedule: Q01DX001 (ip), vehicle: other): 180 % of control
- T/C (dose: 30.0 mg/kg/injection, schedule: Q01DX001 (ip), vehicle: saline with Tween-80): 120 % of control
- T/C (dose: 32.0 mg/kg/injection, schedule: Q04DX003 (oral), vehicle: other): 172 % of control
- T/C (dose: 40.0 mg/kg/injection, schedule: Q01DX001 (ip), vehicle: saline with Tween-80): 228 % of control
- T/C (dose: 40.0 mg/kg/injection, schedule: Q04DX003 (ip), vehicle: other): 86 % of control
- T/C (dose: 45.0 mg/kg/injection, schedule: Q04DX003 (ip), vehicle: saline with Tween-80): 187 % of control and 222 % of control and 274 % of control
- T/C (dose: 50.0 mg/kg/injection, schedule: Q01DX001 (ip), vehicle: saline with Tween-80): 124 % of control
- T/C (dose: 50.0 mg/kg/injection, schedule: Q04DX002 (oral), vehicle: other): 151 % of control and 168 % of control
- T/C (dose: 50.0 mg/kg/injection, schedule: Q04DX003 (oral), vehicle: other): 91 % of control
- T/C (dose: 60.0 mg/kg/injection, schedule: Q01DX001 (ip), vehicle: saline with Tween-80): 252 % of control

Compound: C=CCn1c(=O)n(CC=C)c(=O)n(CCOC(=O)COc2ccc(Cl)cc2Cl)c1=O
- T/C (dose: 50.0 mg/kg/injection, schedule: Q01DX009 (ip), vehicle: saline): 108 % of control
- T/C (dose: 100.0 mg/kg/injection, schedule: Q01DX009 (ip), vehicle: saline): 112 % of control
- T/C (dose: 200.0 mg/kg/injection, schedule: Q01DX009 (ip), vehicle: saline): 94 % of control

Compound: O=C(Nc1ccccc1Cl)Oc1ccc(-c2ccccc2)cc1Br
- T/C (dose: 25.0 mg/kg/injection, schedule: Q01DX009 (ip), vehicle: saline with Tween-80): 111 % of control
- T/C (dose: 50.0 mg/kg/injection, schedule: Q01DX009 (ip), vehicle: saline with Tween-80): 121 % of control
- T/C (dose: 200.0 mg/kg/injection, schedule: Q01DX009 (ip), vehicle: saline with Tween-80): 104 % of control and 95 % of control

Source: PubChem BioAssay AID330 (DTP/NCI, 2004)
